Series [1] relates to Mycosphaerella graminicola; Anamorph: Septoria tritici. As to the kind of experiment: Leaf Blotch of Wheat (SEPTTR) disease control. The format is in vivo. The settings on record: Zymoseptoria tritici; for pest or weed control at 121.5 g/ha: rate 121.5 g/H; for pest or weed control at 100 ppm: rate 100 ppm. The procedure, abridged:
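Yuma wheat, 1st leaf stage; spray to run-off, acetone + 9 vol water/110 ppm Triton X-100; S. tritici spores pre- or post-treatment; dew chamber 100% RH, then greenhouse 20° C. Read: % severity vs untreated → % control.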

The test system of a further series is Phakopsora pachyrhizi. As to the kind of experiment: Asian Soybean Rust (PHAKPA) disease control. The format is in vivo. The settings on record: Phakopsora pachyrhizi, topical. How it is done: Technical grades of materials were dissolved in acetone, which were then mixed with nine volumes of water containing 0.011% Tween 20. The fungicide solutions were applied onto soybean seedlings using an automated booth sprayer to run-off. All sprayed plants were allowed to air dry prior to further handling.
Soybean plants (variety Williams 82) were grown in soil-less Metro mix, with one plant per pot. Two weeks old seedlings were used for testing. Plants were inoculated either 3 days prior to or 1 day after fungicide treatments. Plants were incubated for 24 h in a dark dew room at 22° C. and 100% RH then transferred to a growth room at 23° C. for disease to develop. Disease severity was assessed on the sprayed leaves.

Series [2] relates to Puccinia triticina; Synonym: Puccinia recondite f. Sp. Tritici. As to the kind of experiment: Wheat Brown Rust (PUCCRT) disease control. Conditions: Puccinia triticina, topical; for pest or weed control at 121.5 g/ha: rate 121.5 g/H; for pest or weed control at 100 ppm: rate 100 ppm. The format is in vivo. The essentials: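 Brown rust on first-leaf Yuma wheat: spore inoculation before or after spray application (acetone/Triton X-100 solution, or EC with Trycol in track spray), overnight 100% RH at 22 °C, disease developed at 24 °C. Severity scored 0–100% and converted to percent control against untreated.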

Where [3] appears, read: 24 h, 1 Day Protectant, read-out: SEPTTR 1 DP disease control.
[4] abbreviates: 72 h, 3 Day Curative, read-out: SEPTTR 3 DC disease control.
The mark [5] stands for this setting: 24 h, 1 Day Protectant, read-out: Disease Control PHAKPA 1DP.
Where [6] appears, read: 72 h, 3 Day Curative, read-out: Disease Control PHAKPA 3DC.
Setting [7] is: 24 h, 1 Day Protectant, read-out: PUCCRT 1 DP disease control.
[8] abbreviates: 72 h, 3 Day Curative, read-out: PUCCRT 3 DC disease control.

Read-outs that look alike come from different tables or passages of the source.

In general, melting point refers to the temperature, or range, at which the solid turns liquid.

`CCCO[C@@H]1[C@@H](Cc2ccc(F)cc2)CCC[C@H](N)C(=O)O[C@H]1C.Cl` yielded a melting point of 215 to 217 °C.

With `Cc1ccc(C[C@H]2CCC[C@H](N)C(=O)O[C@@H](C)[C@@H]2OCC2CC2)cc1.Cl`, the melting point is 210 °C (dec.).

As to `Cc1ccc(C[C@H]2CCC[C@H](N)C(=O)O[C@@H](C)[C@@H]2Oc2ccccc2)cc1.Cl`, the melting point was 200 to 210 °C (dec.).

`C[C@@H]1OC(=O)[C@@H](N)CCC[C@H](Cc2ccc(F)cc2F)[C@H]1OCc1ccccc1.Cl` registered a melting point of 233 to 237 °C.

Consider `C[C@@H]1OC(=O)[C@@H](N)CCC[C@H](Cc2ccc(F)cc2F)[C@H]1OCCCc1ccccc1.Cl`, for which the melting point was 190 to 195 °C (dec.).

Consider `CC(C)CO[C@@H]1[C@@H](Cc2ccc(F)cc2F)CCC[C@H](N)C(=O)O[C@H]1C.Cl`, for which the melting point lay in the range of 67 to 73 °C.

Consider `COc1ccnc(C(=O)N[C@H]2CCC[C@H](C)[C@@H](Oc3ccccc3)[C@H](C)OC2=O)c1OC(C)=O` [Compound F76], for which the pest or weed control at 121.5 g/ha in series [1] (setting [3]), in series [1] (setting [4]), in series [2] (setting [7]) and in series [2] (setting [8]) was 80 to 100% each time. Further, the pest or weed control at 25 ppm in the series with Phakopsora pachyrhizi (setting [5]) and in the series with Phakopsora pachyrhizi (setting [6]) was 80 to 100% throughout.

With `COc1ccnc(C(=O)N[C@H]2CCC[C@H](CCC(C)C)[C@@H](OCC3CC3)[C@H](C)OC2=O)c1OCOC(C)=O` [Compound F91], the pest or weed control at 100 ppm in series [1] (setting [3]), in series [1] (setting [4]), in series [2] (setting [7]) and in series [2] (setting [8]) was 80 to 100% in each case. In addition, the pest or weed control at 121.5 g/ha in series [1] (setting [3]), in series [1] (setting [4]), in series [2] (setting [7]) and in series [2] (setting [8]) was 80 to 100% in each case. In addition, the pest or weed control at 25 ppm in the series on Phakopsora pachyrhizi (setting [5]) and in the series with Phakopsora pachyrhizi (setting [6]) was 80 to 100% throughout.

Consider `COc1ccnc(C(=O)N[C@H]2CCC[C@H](CCC(C)C)[C@@H](OCCCC(F)(F)F)[C@H](C)OC2=O)c1OCOC(C)=O` [Compound F93], for which the pest or weed control at 100 ppm in series [1] (setting [3]), in series [1] (setting [4]), in series [2] (setting [7]) and in series [2] (setting [8]) was 80 to 100% each time. Besides, the pest or weed control at 121.5 g/ha in series [1] (setting [3]) is 80 to 100%; in series [1] (setting [4]) it was 80 to 100%; in series [2] (setting [7]), 80 to 100%; in series [2] (setting [8]), 0 to 80%. Besides, the pest or weed control at 25 ppm in the series with Phakopsora pachyrhizi (setting [5]) was 80 to 100%; in the series with Phakopsora pachyrhizi (setting [6]), 0 to 80%.

Turning to `COc1ccnc(C(=O)N[C@H]2CCC[C@H](CC3CCCC3)[C@@H](OC(=O)C(C)C)[C@H](C)OC2=O)c1OCOC(C)=O` [Compound F121], the pest or weed control at 100 ppm in series [1] (setting [3]), in series [1] (setting [4]), in series [2] (setting [7]) and in series [2] (setting [8]) was 80 to 100% each time. The pest or weed control at 121.5 g/ha in series [1] (setting [3]), in series [1] (setting [4]), in series [2] (setting [7]) and in series [2] (setting [8]) was 80 to 100% throughout. The pest or weed control at 25 ppm with Phakopsora pachyrhizi (setting [5]) is 80 to 100%; with Phakopsora pachyrhizi (setting [6]), 0 to 80%.

`COc1ccnc(C(=O)N[C@H]2CCC[C@H](C)[C@@H](Oc3ccccc3)[C@H](C)OC2=O)c1OCOC(C)=O` [Compound F124]: the pest or weed control at 100 ppm in series [1] (setting [3]), in series [1] (setting [4]), in series [2] (setting [7]) and in series [2] (setting [8]) was 80 to 100% throughout. Besides, the pest or weed control at 121.5 g/ha in series [1] (setting [3]), in series [1] (setting [4]), in series [2] (setting [7]) and in series [2] (setting [8]) was 80 to 100% in each case. Also, the pest or weed control at 25 ppm in the series on Phakopsora pachyrhizi (setting [5]) and with Phakopsora pachyrhizi (setting [6]) was 80 to 100% throughout.

Consider `COCC[C@H]1CCC[C@H](NC(=O)c2nccc(OC)c2OCOC(C)=O)C(=O)O[C@@H](C)[C@@H]1OCC(C)C` [Compound F132], for which the pest or weed control at 100 ppm in series [1] (setting [3]), in series [1] (setting [4]), in series [2] (setting [7]) and in series [2] (setting [8]) was 80 to 100% each time. The pest or weed control at 121.5 g/ha in series [1] (setting [3]), in series [1] (setting [4]), in series [2] (setting [7]) and in series [2] (setting [8]) was 80 to 100% each time. The pest or weed control at 25 ppm with Phakopsora pachyrhizi (setting [5]) and in the series on Phakopsora pachyrhizi (setting [6]) was 80 to 100% each time.

With `COc1ccnc(C(=O)N[C@H]2CCC[C@H](CCC(C)C)[C@@H](OCC3CC3)[C@H](C)OC2=O)c1OCOC(=O)C(C)C` [Compound F149], the pest or weed control at 100 ppm in series [1] (setting [3]), in series [1] (setting [4]), in series [2] (setting [7]) and in series [2] (setting [8]) was 80 to 100% throughout. Further, the pest or weed control at 121.5 g/ha in series [1] (setting [3]), in series [1] (setting [4]), in series [2] (setting [7]) and in series [2] (setting [8]) was 80 to 100% in each case. In addition, the values for the pest or weed control at 25 ppm in the series on Phakopsora pachyrhizi (setting [5]) and with Phakopsora pachyrhizi (setting [6]) were 80 to 100% and 0 to 80%, respectively.

`COc1ccnc(C(=O)N[C@H]2CCC[C@H](C)[C@@H](Oc3ccccc3)[C@H](C)OC2=O)c1OCOC(=O)C(C)C` [Compound F155]: the pest or weed control at 100 ppm in series [1] (setting [3]), in series [1] (setting [4]), in series [2] (setting [7]) and in series [2] (setting [8]) was 80 to 100% each time. Moreover, the pest or weed control at 121.5 g/ha in series [1] (setting [3]), in series [1] (setting [4]), in series [2] (setting [7]) and in series [2] (setting [8]) was 80 to 100% in each case. The pest or weed control at 25 ppm with Phakopsora pachyrhizi (setting [5]) and with Phakopsora pachyrhizi (setting [6]) was 80 to 100% each time.

On to `CCOCC(=O)OCOc1c(OC)ccnc1C(=O)N[C@H]1CCC[C@H](CCC(C)C)[C@@H](OCC2CC2)[C@H](C)OC1=O` [Compound F160], for which the pest or weed control at 100 ppm in series [1] (setting [3]), in series [1] (setting [4]), in series [2] (setting [7]) and in series [2] (setting [8]) was 80 to 100% each time. The pest or weed control at 121.5 g/ha in series [1] (setting [3]), in series [1] (setting [4]), in series [2] (setting [7]) and in series [2] (setting [8]) was 80 to 100% throughout. Besides, the pest or weed control at 25 ppm with Phakopsora pachyrhizi (setting [5]) and in the series with Phakopsora pachyrhizi (setting [6]) was 80 to 100% in each case.

Take `C=CCO[C@@H]1[C@@H](Cc2ccc(F)cc2)CCC[C@H](NC(=O)c2nccc(OC)c2OCOC(=O)COCC)C(=O)O[C@H]1C` [Compound F166]: the pest or weed control at 100 ppm in series [1] (setting [3]), in series [1] (setting [4]), in series [2] (setting [7]) and in series [2] (setting [8]) was 80 to 100% throughout. The pest or weed control at 121.5 g/ha in series [1] (setting [3]), in series [1] (setting [4]), in series [2] (setting [7]) and in series [2] (setting [8]) was 80 to 100% throughout. For the same compound, the pest or weed control at 25 ppm with Phakopsora pachyrhizi (setting [5]) lay within 80 to 100%; in the series with Phakopsora pachyrhizi (setting [6]), 0 to 80%.

For the compound `CCOCC(=O)OCOc1c(OC)ccnc1C(=O)N[C@H]1CCC[C@H](CCOC)[C@@H](OCC(C)C)[C@H](C)OC1=O` [Compound F187], the pest or weed control at 100 ppm in series [1] (setting [3]), in series [1] (setting [4]), in series [2] (setting [7]) and in series [2] (setting [8]) was 80 to 100% in each case. Further, the pest or weed control at 121.5 g/ha in series [1] (setting [3]), in series [1] (setting [4]), in series [2] (setting [7]) and in series [2] (setting [8]) was 80 to 100% in each case. Besides, the pest or weed control at 25 ppm in the series on Phakopsora pachyrhizi (setting [5]) and in the series with Phakopsora pachyrhizi (setting [6]) was 80 to 100% each time.

Regarding `CCOCC(=O)OCOc1c(OC)ccnc1C(=O)N[C@H]1CCC[C@H](CC)[C@@H](Oc2ccccc2)[C@H](C)OC1=O` [Compound F189], the pest or weed control at 100 ppm in series [1] (setting [3]), in series [1] (setting [4]), in series [2] (setting [7]) and in series [2] (setting [8]) was 80 to 100% throughout. For the same compound, the pest or weed control at 121.5 g/ha in series [1] (setting [3]), in series [1] (setting [4]), in series [2] (setting [7]) and in series [2] (setting [8]) was 80 to 100% in each case. Also, the pest or weed control at 25 ppm in the series on Phakopsora pachyrhizi (setting [5]) and with Phakopsora pachyrhizi (setting [6]) was 80 to 100% in each case.

The values above are taken from US9265253B2, “Use of macrocyclic picolinamides as fungicides” (DOW AGROSCIENCES LLC, priority 2013, dated 2016).
